Source: patent publication US10800755B2, “2,6-disubstituted pyridine derivative” (Sumitomo Dainippon Pharma Co., Ltd., priority 2017, dated 2020)

Legend:
human D2 receptor = human D2 receptor (Homo sapiens (Human), UniProt P14416); experiment: Test 2: binding activity to human D2 receptor ([3H] spiperone, CHO cell membrane); conditions: [3H] spiperone; read-out: D2 binding affinity (Ki value)
Wistar male rat = experiment: Test 8: forced swimming test; type: in vivo; conditions: oral, once a day, 5 mg/kg administration
Method: Test 8: Forced Swimming Test
The antidepressive effect of the present compound was evaluated in a manner mentioned below.
The test was carried out with 8-week-old Wistar male rat in 4-day test schedule. On the 1st day of the test, the rat was put into a transparent plastic bath filled with 5.8 L of tap water at 25° C., and made to swim for 15 minutes as swimming training. After the swimming training, the rat was rapidly wiped to remove the attached waterdrop, and returned to the home cage. 15 minutes after the training, the present compound or a positive control compound was orally administered with methylcellulose suspension to the rat. On the next day of the training and the day after next, the present compound or the positive control compound was orally administered with methylcellulose suspension to the rat once a day. On the 4th day, the swimming test was carried out. On the day of the swimming test, the present compound or the positive control compound was orally administered with methylcellulose suspension to the rat one hour before the start of the test. The swimming test was carried out with the rat in the above-mentioned water bath for 5 minutes. The swimming movement of the individual was recorded with a video from the side of the water bath, and the immobility time was measured with a stop-watch. […]

[1] = Test 3-2: metabolic stability test of human liver microsome (0.5 or 1.0 mg/mL); type: in vitro ADME; conditions: test compound 0.1 μmol/L, 37° C., 30 minutes
Method: Test 3-2: Metabolic Stability Test of Human Liver Microsome
In order to evaluate the metabolic stability of human liver microsomes more precisely, the stability of the present compounds for human liver microsome metabolism was evaluated with a suitable concentration of human liver microsome, as mentioned below. The used human liver microsome was obtained from Xenontech. Human liver microsome, NADPH, and each test compound were mixed in 25 mmol/L phosphate buffer solution (pH 7.4) to adjust each concentration as shown below, and the mixture was incubated at 37° C. for 30 minutes. • human liver microsome: 0.5 or 1.0 mg/mL • NAPDH: 3.2 mmol/L • test compound: 0.1 μmol/L
The residual ratio of the test compound in each sample after the incubation for 30 minutes was measured with a LC-MS, and the metabolic stability of human liver microsome was calculated about each test compound with the following formula. Metabolic stability of human liver microsome (mL/min/mg protein)=−LN (residual ratio)/“reaction time”/“concentration of human liver microsome”

hERG channel = hERG channel (Homo sapiens (Human), UniProt Q12809); experiment: Test 5-1: activity for inhibiting hERG channel (whole-cell patch clamp, hERG-CHO cell, Qpatch); type: cell-based; conditions: read-out: hERG inhibition IC50
Method: Test 5-1: Evaluation of Activity for Inhibiting hERG Channel
The activity of the present compound for inhibiting hERG channel was measured by whole-cell patch clamp method with auto patch clamp system, using CHO cell wherein hERG channel involved in human rapidly activating delayed rectifier potassium current (IKr) was forcibly expressed.
hERG-CHO cell purchased from ChanTest was incubated at 37° C. in a CO2 incubator, and the cell was exfoliated from the flask with trypsin to prepare a cell suspension, shortly before the hERG current measurement.
Extracellular fluid: 2 mmol/L CaCl2, 1 mmol/L MgCl2, 10 mmol/L HEPES, 4 mmol/L KCl, 145 mmol/L NaCl, 10 mmol/L glucose
Intracellular fluid: 5.4 mmol/L CaCl2, 1.8 mmol/L MgCl2, 10 mmol/L HEPES, 31 mmol/L KOH, 10 mmol/L EGTA, 120 mmol/L KCl, 4 mmol/L Na2-ATP
Test compound solution: The test compound was dissolved in DMSO by adjusting the concentration to 2 mmol/L or 20 mmol/L to prepare each test compound solution. […] (Measurement of Current Value and Data Analysis)
The cell suspension, the extracellular fluid, the intracellular fluid, and the measurement plate were set in an auto patch clamp system, and the hERG current was measured by whole-cell patch clamp method. […] Each pulse interval was 15 seconds. The data analysis was carried out with Qpatch Assay Software (Biolin Scientific). The test was carried out applying increscently 4 concentrations of each test compound, and the average of the peak tail currents that were obtained by the last 3 stimulations in each applied concentration was determined to be the evaluated data. By using the current inhibition rate for the pre-applied current at each concentration of each test compound, IC50 value was calculated by Hill equation with the software.

Chain of human D2 receptor (P14416 whole entry): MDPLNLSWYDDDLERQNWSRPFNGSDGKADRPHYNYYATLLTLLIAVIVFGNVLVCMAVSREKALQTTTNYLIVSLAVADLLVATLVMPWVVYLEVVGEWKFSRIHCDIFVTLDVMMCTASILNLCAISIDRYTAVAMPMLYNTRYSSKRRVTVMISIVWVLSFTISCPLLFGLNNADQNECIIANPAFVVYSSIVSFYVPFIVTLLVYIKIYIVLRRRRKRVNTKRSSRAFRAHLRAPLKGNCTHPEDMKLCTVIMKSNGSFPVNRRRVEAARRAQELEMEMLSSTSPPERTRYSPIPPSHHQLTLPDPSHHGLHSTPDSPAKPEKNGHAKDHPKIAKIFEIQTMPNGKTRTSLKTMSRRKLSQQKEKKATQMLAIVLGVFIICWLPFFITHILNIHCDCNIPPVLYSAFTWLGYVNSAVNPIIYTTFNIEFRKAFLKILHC
Chain of hERG channel (Q12809 whole entry): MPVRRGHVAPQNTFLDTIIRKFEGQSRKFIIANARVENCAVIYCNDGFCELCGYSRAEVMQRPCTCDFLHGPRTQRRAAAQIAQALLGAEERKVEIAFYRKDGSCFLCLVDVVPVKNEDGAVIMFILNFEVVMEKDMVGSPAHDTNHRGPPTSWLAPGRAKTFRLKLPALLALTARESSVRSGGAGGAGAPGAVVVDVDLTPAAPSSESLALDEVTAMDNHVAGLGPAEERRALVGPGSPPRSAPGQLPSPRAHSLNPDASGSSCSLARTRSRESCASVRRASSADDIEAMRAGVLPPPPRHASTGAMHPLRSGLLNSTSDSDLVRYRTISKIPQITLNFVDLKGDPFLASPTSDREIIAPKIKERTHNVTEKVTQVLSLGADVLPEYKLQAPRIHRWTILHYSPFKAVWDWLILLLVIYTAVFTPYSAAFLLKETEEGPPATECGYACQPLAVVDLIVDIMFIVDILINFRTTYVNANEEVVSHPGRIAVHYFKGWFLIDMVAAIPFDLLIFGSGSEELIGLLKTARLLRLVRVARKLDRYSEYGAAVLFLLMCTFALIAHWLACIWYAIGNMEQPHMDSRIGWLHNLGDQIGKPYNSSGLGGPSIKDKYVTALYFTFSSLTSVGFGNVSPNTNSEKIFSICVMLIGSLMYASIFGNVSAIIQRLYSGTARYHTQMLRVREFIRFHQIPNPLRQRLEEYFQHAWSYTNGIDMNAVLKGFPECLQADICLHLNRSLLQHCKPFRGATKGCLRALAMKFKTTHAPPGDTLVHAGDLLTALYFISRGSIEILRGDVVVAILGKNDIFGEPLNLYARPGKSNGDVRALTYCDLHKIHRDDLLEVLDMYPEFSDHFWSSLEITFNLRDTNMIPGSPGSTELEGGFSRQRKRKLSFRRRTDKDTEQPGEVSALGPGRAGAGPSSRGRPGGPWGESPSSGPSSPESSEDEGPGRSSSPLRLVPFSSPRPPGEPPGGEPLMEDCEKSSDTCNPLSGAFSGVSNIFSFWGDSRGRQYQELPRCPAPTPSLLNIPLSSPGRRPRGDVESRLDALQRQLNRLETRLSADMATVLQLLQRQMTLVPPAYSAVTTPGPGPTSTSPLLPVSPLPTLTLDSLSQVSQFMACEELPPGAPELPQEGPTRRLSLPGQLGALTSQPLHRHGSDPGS

Ki (human D2 receptor): 1140 nM
Metabolic stability of human liver microsome [1]: 0.031 mL/min/mg protein
SMILES: O=C(NCCN1CCC(c2cccc(C(F)(F)F)n2)CC1)C1CCC(F)(F)CC1 [Example 1, 4,4-Difluoro-N-(2-{4-[6-(trifluoromethyl)pyridin-2-yl]piperidin-1-yl}ethyl)cyclohexane-carboxamide]
decrease of the immobility time for the solvent-administration group (Wistar male rat): 74.7%
IC50 (hERG channel): 2500 nM
